The text below walks through data of US20250375540A1, “FIBROBLAST ACTIVATION PROTEIN TARGETING PRECURSOR AND RADIOTRACER” (ITM ONCOLOGICS GMBH, priority 2022, published 2025).

The target of assay [1] is T1, FAP (Homo sapiens, UniProt Q12884).
T1 sequence (Q12884 1-760): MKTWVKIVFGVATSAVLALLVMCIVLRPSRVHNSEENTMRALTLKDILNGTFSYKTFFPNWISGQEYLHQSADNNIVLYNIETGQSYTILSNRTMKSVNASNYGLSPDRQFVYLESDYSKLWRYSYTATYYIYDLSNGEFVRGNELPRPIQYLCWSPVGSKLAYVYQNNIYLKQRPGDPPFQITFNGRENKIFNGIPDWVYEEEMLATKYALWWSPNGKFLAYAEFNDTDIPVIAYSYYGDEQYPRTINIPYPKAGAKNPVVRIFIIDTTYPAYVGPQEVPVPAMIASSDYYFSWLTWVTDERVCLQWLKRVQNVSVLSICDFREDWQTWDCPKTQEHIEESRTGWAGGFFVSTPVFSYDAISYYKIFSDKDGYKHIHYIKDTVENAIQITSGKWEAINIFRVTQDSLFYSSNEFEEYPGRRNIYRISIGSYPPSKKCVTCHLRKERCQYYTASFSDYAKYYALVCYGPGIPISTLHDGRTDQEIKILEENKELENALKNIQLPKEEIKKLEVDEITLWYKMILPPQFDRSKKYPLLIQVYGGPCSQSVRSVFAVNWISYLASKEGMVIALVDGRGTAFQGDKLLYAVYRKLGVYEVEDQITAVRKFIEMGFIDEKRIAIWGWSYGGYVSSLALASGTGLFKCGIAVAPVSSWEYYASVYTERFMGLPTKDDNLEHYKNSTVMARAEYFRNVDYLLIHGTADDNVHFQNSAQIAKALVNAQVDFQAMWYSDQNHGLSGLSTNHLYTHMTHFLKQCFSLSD
As to the kind of experiment: Affinity to FAP (IC50). The class given is biochemical. The note with it: for affinity to FAP, in words: compared with reference (F) and gold standard (G); for selectivity for FAP over PREP, in words: relative to (G) UAMC1110; for S = PREP IC50/FAP IC50: selectivity FAP over PREP; for SF = S relative to UAMC1110: selectivity factor relative to UAMC1110.

Another assay addresses T2, PREP (Homo sapiens, UniProt P48147).
T2 sequence (P48147 1-710): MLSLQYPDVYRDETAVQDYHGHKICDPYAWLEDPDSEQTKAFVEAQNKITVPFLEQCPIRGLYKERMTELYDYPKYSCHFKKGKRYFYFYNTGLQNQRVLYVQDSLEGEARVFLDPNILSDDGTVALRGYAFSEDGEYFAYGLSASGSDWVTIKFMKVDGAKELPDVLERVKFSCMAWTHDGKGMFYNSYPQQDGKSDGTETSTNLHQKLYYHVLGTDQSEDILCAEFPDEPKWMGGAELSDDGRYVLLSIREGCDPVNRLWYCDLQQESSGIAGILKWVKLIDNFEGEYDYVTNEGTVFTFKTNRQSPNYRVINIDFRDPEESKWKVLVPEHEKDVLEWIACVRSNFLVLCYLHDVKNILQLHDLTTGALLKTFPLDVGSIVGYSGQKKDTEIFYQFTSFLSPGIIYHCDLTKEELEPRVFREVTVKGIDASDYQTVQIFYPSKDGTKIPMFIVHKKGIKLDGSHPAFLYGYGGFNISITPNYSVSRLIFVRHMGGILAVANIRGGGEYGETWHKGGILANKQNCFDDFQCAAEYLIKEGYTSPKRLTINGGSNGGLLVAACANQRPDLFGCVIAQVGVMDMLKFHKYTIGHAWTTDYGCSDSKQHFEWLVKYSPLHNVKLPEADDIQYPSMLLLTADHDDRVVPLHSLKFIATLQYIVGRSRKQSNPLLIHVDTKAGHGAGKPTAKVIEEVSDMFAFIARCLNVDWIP
Put plainly: Affinity to PREP (IC50). Particulars: for binding to off-target PREP, in words: compared with reference (F) and (G). The class given is biochemical. An excerpt:
Beneath Table 1 presents measured affinities to FAP and PREP for the inventive precursor compounds 1-4 and reference compound 5 as well as the original FAP inhibitor UAMC1110 as the current gold standard.

The target of assay [2] is T1, FAP. Particulars: background statement; cited from earlier work.
The target of a further assay is DPP4 (Homo sapiens, UniProt P27487). The note with it: background statement; cited from earlier work.
Sequence of DPP4 (P27487 whole entry): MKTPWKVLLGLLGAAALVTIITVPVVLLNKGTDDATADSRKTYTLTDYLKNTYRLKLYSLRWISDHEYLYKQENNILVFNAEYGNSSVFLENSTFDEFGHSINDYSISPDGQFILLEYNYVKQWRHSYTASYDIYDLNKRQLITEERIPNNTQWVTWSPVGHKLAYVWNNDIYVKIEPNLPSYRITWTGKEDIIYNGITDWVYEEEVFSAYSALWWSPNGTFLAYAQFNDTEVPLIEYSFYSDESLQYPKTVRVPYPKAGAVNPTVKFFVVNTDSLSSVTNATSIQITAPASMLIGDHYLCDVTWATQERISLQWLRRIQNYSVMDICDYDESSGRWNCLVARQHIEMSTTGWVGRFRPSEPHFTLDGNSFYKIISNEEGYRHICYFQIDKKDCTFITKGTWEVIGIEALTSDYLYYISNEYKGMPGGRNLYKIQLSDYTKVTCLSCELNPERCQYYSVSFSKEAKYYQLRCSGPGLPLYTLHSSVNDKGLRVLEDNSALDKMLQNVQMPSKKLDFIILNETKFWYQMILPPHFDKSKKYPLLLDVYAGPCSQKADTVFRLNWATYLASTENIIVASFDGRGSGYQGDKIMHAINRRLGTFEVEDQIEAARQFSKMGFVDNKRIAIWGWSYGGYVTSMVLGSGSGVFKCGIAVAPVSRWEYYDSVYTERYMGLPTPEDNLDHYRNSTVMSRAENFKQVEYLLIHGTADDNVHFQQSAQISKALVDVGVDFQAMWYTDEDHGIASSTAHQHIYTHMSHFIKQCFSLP

As a reminder, the IC50 is the point on the concentration scale where inhibition reaches its midpoint. Low readings indicate inhibition by little substance, high ones a need for much substance. For `CN(CC(=O)O)C1(CCCCC(=O)N[C@H]2CCN(CC(=O)NCCCCOc3ccc4nccc(C(=O)NCC(=O)N5CC(F)(F)C[C@H]5C#N)c4c3)C2)CN(CC(=O)O)CCN(CC(=O)O)C1` [(D), 2,2′-(6-((carboxymethyl)(methyl)amino)-6-(5-(((S)-1-(2-((4-((4-((2-((S)-2-cyano-4,4-difluoropyrrolidin-1-yl)-2-oxoethyl)carbamoyl)quinolin-6-yl)oxy)butyl)amino)-2-oxoethyl)pyrrolidin-3-yl)amino)-5-oxopentyl)-1,4-diazepane-1,4-diyl)diacetic Acid], on FAP [1], the 50% inhibitory concentration (IC50) turned out to be 0.28 ± 0.02 nM; the “affinity to FAP, in words” value is “higher affinity to FAP than reference compound (F) and the UAMC1110 gold standard (G)”; the “selectivity for FAP over PREP, in words” value is “three times higher than that of (G)”; the “S = PREP IC50/FAP IC50” value is 11.8 × 10^3. Moreover, at FAP [1], the “SF = S relative to UAMC1110” value is listed as 2.8. On PREP, the half-inhibitory concentration (IC50) was 3300 ± 200 nM; the “binding to off-target PREP, in words” value is “reduced binding to off-target PREP compared to reference (F) and (G)”.

With `CN(CC(=O)NCCCCOc1ccc2nccc(C(=O)NCC(=O)N3CC(F)(F)C[C@H]3C#N)c2c1)[C@H]1CCN(C(=O)CCCCC2(N(C)CC(=O)O)CN(CC(=O)O)CCN(CC(=O)O)C2)C1` [(E), 2,2′-(6-((carboxymethyl)(methyl)amino)-6-(5-((S)-3-((2-((4-((4-((2-((S)-2-cyano-4,4-difluoropyrrolidin-1-yl)-2-oxoethyl)carbamoyl)quinolin-6-yl)oxy)butyl)amino)-2-oxoethyl)(methyl)amino)pyrrolidin-1-yl)-5-oxopentyl)-1,4-diazepane-1,4-diyl)diacetic Acid], at FAP [1], half-maximal inhibition (IC50) required 0.31 ± 0.02 nM; the “affinity to FAP, in words” value is “higher affinity to FAP than reference compound (F) and the UAMC1110 gold standard (G)”; the “selectivity for FAP over PREP, in words” value is “twice that of (G)”; the “S = PREP IC50/FAP IC50” value is on record as 8.4 × 10^3. Further, the “SF = S relative to UAMC1110” value at FAP [1] came out at 2.0. Moreover, at PREP, half-maximal inhibition (IC50) was put at 2600 ± 300 nM; the “binding to off-target PREP, in words” value was “reduced binding to off-target PREP compared to reference (F) and (G)”.

Consider `N#C[C@@H]1CC(F)(F)CN1C(=O)CNC(=O)c1ccnc2ccccc12` [(G), (S)-N-(2-(2-cyano-4,4-difluoropyrrolidin-1-yl)-2-oxoethyl)quinoline-4-carboxamide], for which the FAP affinity result at FAP [2] is given as “low nM range”. The DPP4 affinity result on DPP4 is “μM range”.

Turning to `CN(CC(=O)O)C1(CCCCC(=O)NCCCCOc2ccc3nccc(C(=O)NCC(=O)N4CC(F)(F)C[C@H]4C#N)c3c2)CN(CC(=O)O)CCN(CC(=O)O)C1` [Compound (A), (S)-2,2′-(6-((carboxymethyl)(methyl)amino)-6-(5-((4-((4-((2-(2-cyano-4,4-difluoropyrrolidin-1-yl)-2-oxoethyl)carbamoyl)quinolin-6-yl)oxy)butyl)amino)-5-oxopentyl)-1,4-diazepane-1,4-diyl)diacetic Acid], at FAP [1], 0.27 ± 0.02 nM corresponded to half-maximal inhibition (IC50); the “affinity to FAP, in words” value was “higher affinity to FAP than reference compound (F) and the UAMC1110 gold standard (G)”; the “selectivity for FAP over PREP, in words” value is listed as “six times that of (G)”; the “S = PREP IC50/FAP IC50” value is given as 23.7 × 10^3. Moreover, the “SF = S relative to UAMC1110” value at FAP [1] turned out to be 5.6. Further, at PREP, the IC50 stood at 6400 ± 400 nM; the “binding to off-target PREP, in words” value was “reduced binding to off-target PREP compared to reference (F) and (G)”.

Turning to `CN(CC(=O)O)C1(CCCCC(=O)N2CCN(CC(=O)NCCCCOc3ccc4nccc(C(=O)NCC(=O)N5CC(F)(F)C[C@H]5C#N)c4c3)CC2)CN(CC(=O)O)CCN(CC(=O)O)C1` [Compound (B), (S)-2,2′-(6-((carboxymethyl)(methyl)amino)-6-(5-(4-(2-((4-((4-((2-(2-cyano-4,4-difluoropyrrolidin-1-yl)-2-oxoethyl)carbamoyl)quinolin-6-yl)oxy)butyl)amino)-2-oxoethyl)piperazin-1-yl)-5-oxopentyl)-1,4-diazepane-1,4-diyl)diacetic Acid], at FAP [1], it took 0.27 ± 0.01 nM to reach half-maximal inhibition (IC50); the “affinity to FAP, in words” value was “higher affinity to FAP than reference compound (F) and the UAMC1110 gold standard (G)”; the “S = PREP IC50/FAP IC50” value is given as 5.6 × 10^3; the “SF = S relative to UAMC1110” value is 1.3. Besides, at PREP, the IC50 was determined as 1500 ± 300 nM; the “binding to off-target PREP, in words” value is “comparable to (F) and (G)”.
